Key:
[1] = Determination of equilibrium solubilities in aqueous solutions at various pHs; conditions: thermodynamic from solid
Procedure: The equilibrium solubilities of the compounds investigated were determined in aqueous solutions at various pHs and the pH-dependent solubility profile and the solubilities at different pHs were compared here. In this case, the content determination was carried out by means of capillary electrophoresis.

[2] = Release in artificial intestinal juice; assay type: physicochemical
Procedure: Investigations on release were carried out in a Sotax AT7 smart release apparatus with UV measurement (Perkin Elmer photometer).
A vessel with Wood apparatus was used (for intrinsic release).
A pressing of 0.5 cm^2 surface area (diameter 8 mm) was produced with a force of 200 N using approximately 100 mg of active ingredient.
Release was carried out in a release medium, which is composed as described below: • Intestinal juice without pancreas powder, pH 6.8 (analogous to Ph. Eur.); 250.0 ml 6.8 g of potassium dihydrogenphosphate R+0.896 g of NaOH+water to 1000.0 ml.
Release was carried out in a release volume of in each case 500±5 ml at a temperature of the release medium of 37±1° C. with a stirring speed of 100±5 rpm.
The content determination was carried out by means of spectroscopic methods (UV spectroscopy, wavelength: 271 nm, cuvette: 10 mm). Sample taking was carried out manually.
In this release experiment, the individual compounds were placed in a permeable bag in an amount in each case calculated on 100 mg of the free base.
The results, expressed in percent of the substance released, are reproduced in the following tables. In this case, the compounds denote: HCl: hydrochloride; A: cinnamate; B: palmitate; C: decanoate; E: hemi-fumarate and F: hemi-sebacate.

[3] = Dynamic vapor sorption (DVS): sorption and desorption of moisture; assay type: physicochemical
Procedure: Investigations on the sorption and desorption of moisture (dynamic vapor sorption, DVS): DVS measurements were carried out on an apparatus of the type DVS 1000 from Porotec. The evaluation of the measurements was carried out using software from Surface Measurement Systems. At a temperature between 23° C. and 26° C., starting from a relative humidity of 50%, within 240 minutes the relative humidity first increased to 90% and then fell to 0%. This cycle was repeated a second time. The DVS charts shown are isothermal recordings (plots) of the change in the mass in % (change in mass—dry) as a function of the desired relative humidity in % (target RH). Correspondingly, the axes of the graphs are marked by ΔM [%] and RH [%]. The measurement curves of the first sorption are designated by 1-S, the subsequent first desorption by 1-D, the second sorption by 2-S and the second desorption by 2-D. Advantageously, mass changes between the sorption and desorption phase are as low as possible.

Molecule: CN(C)C[C@H]1CCCC[C@]1(O)c1cccc(O)c1.Cl [hydrochloride, (+)-(1R,2R)-3-[2-(dimethylamino)methyl-1-hydroxycyclohexyl]phenol hydrochloride]
- solubility thermodynamic ([1]; aqueous with cosolvent or surfactant or cyclodextrin): 1090 mM
- solubility thermodynamic ([1]; pH 1.4, simulated gastric fluid): 582 mM
- solubility thermodynamic ([1]; pH 4.3, aqueous buffer): 666 mM
- solubility thermodynamic ([1]; pH 6.8, aqueous buffer): 698 mM
- solubility thermodynamic ([1]; pH 7.4, aqueous buffer): 867 mM
- solubility thermodynamic ([1]; pH 11, aqueous buffer): 979 mM
- solubility thermodynamic ([1]; water): 983 mM
- substance passed into the artificial intestinal fluid ([2]; after two to 4 minutes, artificial intestinal juice pH 6.8, 37 °C): ~100%

Molecule: palmitate
- release behaviour in artificial intestinal juice ([2]; Experiments B-1 and B-2): more intensely prolonged release
- release rate compared to the hydrochloride salt ([2]; in artificial intestinal juice): decreased release rates compared to the hydrochloride salt
- ΔM Desorption ([3]; 1st cycle, RH 0.0 %): 0.0000%
- ΔM Desorption ([3]; 1st cycle, RH 10.0 %): 0.0083%
- ΔM Desorption ([3]; 1st cycle, RH 20.0 %): 0.0148%
- ΔM Desorption ([3]; 1st cycle, RH 30.0 %): 0.0234%
- ΔM Desorption ([3]; 1st cycle, RH 40.0 %): 0.0353%
- ΔM Desorption ([3]; 1st cycle, RH 50.0 %): 0.0472%
- ΔM Hysteresis ([3]; 1st cycle, RH 50.0 %): 0.0027%
- ΔM Sorption ([3]; 1st cycle, RH 50.0 %): 0.0445%
- ΔM Desorption ([3]; 1st cycle, RH 60.0 %): 0.0896%
- ΔM Hysteresis ([3]; 1st cycle, RH 60.0 %): 0.0374%
- ΔM Sorption ([3]; 1st cycle, RH 60.0 %): 0.0522%
- ΔM Desorption ([3]; 1st cycle, RH 70.0 %): 0.1139%
- ΔM Hysteresis ([3]; 1st cycle, RH 70.0 %): 0.0412%
- ΔM Sorption ([3]; 1st cycle, RH 70.0 %): 0.0727%
- ΔM Desorption ([3]; 1st cycle, RH 80.0 %): 0.1406%
- ΔM Hysteresis ([3]; 1st cycle, RH 80.0 %): 0.0347%
- ΔM Sorption ([3]; 1st cycle, RH 80.0 %): 0.1059%
- ΔM Desorption ([3]; 1st cycle, RH 90.0 %): 0.1531%
- ΔM Sorption ([3]; 1st cycle, RH 90.0 %): 0.1531%
- ΔM Desorption ([3]; 2nd cycle, RH 0.0 %): 0.0172%
- ΔM Sorption ([3]; 2nd cycle, RH 0.0 %): 0.0000%
- ΔM Desorption ([3]; 2nd cycle, RH 10.0 %): 0.0303%
- ΔM Hysteresis ([3]; 2nd cycle, RH 10.0 %): 0.0202%
- ΔM Sorption ([3]; 2nd cycle, RH 10.0 %): 0.0101%
- ΔM Desorption ([3]; 2nd cycle, RH 20.0 %): 0.0421%
- ΔM Hysteresis ([3]; 2nd cycle, RH 20.0 %): 0.0211%
- ΔM Sorption ([3]; 2nd cycle, RH 20.0 %): 0.0211%
- ΔM Desorption ([3]; 2nd cycle, RH 30.0 %): 0.0552%
- ΔM Hysteresis ([3]; 2nd cycle, RH 30.0 %): 0.0225%
- ΔM Sorption ([3]; 2nd cycle, RH 30.0 %): 0.0326%
- ΔM Desorption ([3]; 2nd cycle, RH 40.0 %): 0.0679%
- ΔM Hysteresis ([3]; 2nd cycle, RH 40.0 %): 0.0237%
- ΔM Sorption ([3]; 2nd cycle, RH 40.0 %): 0.0442%
- ΔM Desorption ([3]; 2nd cycle, RH 50.0 %): 0.0837%
- ΔM Hysteresis ([3]; 2nd cycle, RH 50.0 %): 0.0234%
- ΔM Sorption ([3]; 2nd cycle, RH 50.0 %): 0.0602%
- ΔM Desorption ([3]; 2nd cycle, RH 60.0 %): 0.1344%
- ΔM Hysteresis ([3]; 2nd cycle, RH 60.0 %): 0.0573%
- ΔM Sorption ([3]; 2nd cycle, RH 60.0 %): 0.0771%
- ΔM Desorption ([3]; 2nd cycle, RH 70.0 %): 0.1640%
- ΔM Hysteresis ([3]; 2nd cycle, RH 70.0 %): 0.0739%
- ΔM Sorption ([3]; 2nd cycle, RH 70.0 %): 0.0902%
- ΔM Desorption ([3]; 2nd cycle, RH 80.0 %): 0.1827%
- ΔM Hysteresis ([3]; 2nd cycle, RH 80.0 %): 0.0495%
- ΔM Sorption ([3]; 2nd cycle, RH 80.0 %): 0.1332%
- ΔM Desorption ([3]; 2nd cycle, RH 90.0 %): 0.1771%
- ΔM Sorption ([3]; 2nd cycle, RH 90.0 %): 0.1771%
- ΔM Sorption ([3]; 3rd cycle, RH 0.0 %): 0.0172%
- ΔM Sorption ([3]; 3rd cycle, RH 10.0 %): 0.0231%
- ΔM Sorption ([3]; 3rd cycle, RH 20.0 %): 0.0306%
- ΔM Sorption ([3]; 3rd cycle, RH 30.0 %): 0.0392%
- ΔM Sorption ([3]; 3rd cycle, RH 40.0 %): 0.0498%
- ΔM Sorption ([3]; 3rd cycle, RH 50.0 %): 0.0650%

— patent US20110251286A1, “Crystalline salts and/or co-crystals of O-desmethyltramadol” (GRUENENTHAL GmbH, priority 2010, published 2011)
